Data on one molecule can be found in patent US7531195B2, “Schisandrin B preparation” (priority 2005, dated 2009).

For the assay, the system named is H9c2 cells. Put plainly: Xanthine/xanthine oxidase-induced cytotoxicity (LDH leakage) in H9c2 cells. It is filed as cell-based, rat. To be noted: 6.25 μM. The method, then: H9c2 cells, a permanent cell line derived from cardiac myoblasts of rat embryo, have early been characterized as a suitable model of myocardial cells [Hescheler et al. 1991]. H9c2 cells were cultured as monolayers in Dulbecco's modified Eagle's medium (GIBCO BRL) supplemented with 10% (v/v) fetal bovine serum. The medium contained glucose (4.5 g/L) and glutamine (4.5 mM), supplemented with NaHCO3 (17 mM), penicillin (100 IU/ml), and streptomycin (100 μg/ml). Cells were grown under an atmosphere of 5% CO2 in air at 37° C. The medium was replaced by fresh medium every 2 or 3 days. A stock of cells was grown in a 75 cm culture flask and split before confluence at a subcultivation ratio of 1:10. Cells used for experiments were seeded at a density of 3.75×10^4 cells/well on a 12-well culture plate, and the cells were grown for 24 h to about 80% confluence prior to drug treatment.
Cultured H9c2 cells were treated with (−) Schisandrin B, (+) Schisandrin B or (±) Schisandrin B (dissolved in DMSO) at 6.25 μM (0.2% DMSO final concentration) for increasing periods of time. Control cells were given the vehicle (i.e. DMSO) only. Immediately following the drug or vehicle pretreatment, the cells were challenged with a mixture of xanthine (X) (0.1 mM) and xanthine oxidase (XO) (0.4 U/ml) for 4 h. The control cells were treated with the medium only. After the X/XO challenge, the medium was taken for the measurement of LDH activity, a biochemical index of cellular injury.
A general note: LDH in the medium is a marker of cell lysis.

Setting [1] is: X/XO challenge, 16 h post-dosing.

Consider `COc1cc2c(c(OC)c1OC)-c1c(cc3c(c1OC)OCO3)CC(C)C(C)C2` (single isomer, unassigned; (-)) [(−) Sch B, (−) Schisandrin B], for which the “time of maximum extent of protection against X/XO-induced cell injury (LDH leakage)” value (post-dosing) was 16 h. Besides, the “LDH Leakage” value is, setting by setting: (X/XO challenge, 0 h post-dosing (unpretreated control)) 34.8 ± 1.13 U/L; (X/XO challenge, 4 h post-dosing) 26.0 ± 0.92 U/L; (X/XO challenge, 8 h post-dosing) 22.0 ± 0.63 U/L; under setting [1], 14.2 ± 0.35 U/L; (X/XO challenge, 24 h post-dosing) 17.5 ± 0.85 U/L; (X/XO challenge, 48 h post-dosing) 26.3 ± 0.41 U/L. Moreover, the “LDH Leakage, percent protection vs unpretreated control (0 h)” value under setting [1] was “(78%)”.
